These results are taken from US4372975A, “Substituted 2-benzoyl-4-chloroglycinanilide derivatives, a process for their production, and their use as medicaments” (Pierre Fabre SA, priority 1977, dated 1983).

Structures are written as SMILES. Structures can show the parent of a compound that is named as a salt. Where two headings read alike, the source gives them in different places. Bounds are passed on as bounds.

Data set [1] concerns pentamethylene tetrazole-induced tonic spasms. Put plainly: Anti-pentamethylene tetrazole activity. Type of data set: in vivo, male mice of the Swiss strain. The settings on record: for ED50: Mus musculus; for Activity antipentetrazol (VO), at 10 mg: 10 mg (mg/kg). Here is the method:
This test is carried out on a group of 10 male mice of the Swiss strain. 15 minutes after the subcutaneous injection of 125 mg/kg of pentamethylene tetrazole, the mice have tonic spasms of which the outcome is fatal.
For the test, the compound is administered orally 60 minutes before the injection of pentamethylene tetrazole. The animals are observed for 2 hours after administration of the pentamethylene tetrazole. In some particular cases, the tests were confirmed by intraperitoneal administration. The results are expressed by the effective dose DE50 (Goodman et Col.--J. Pharmacol. 108, 1953).
As Japanese Pat. No. 148,340 has been cited in copending application Ser. No. 916,651, filed June 19, 1978, comparisons between compounds of this closest prior art and the compounds of the invention were undertaken in the form of a controlled study.
The major consideration surrounded the similarity in the compounds, particularly in the substitution at the R position. The study compared ten compounds of the invention, which differed from the Japanese prior art only in that the compounds of the invention are alkylated at the R position while the prior art compounds are all hydrogenated at that position.
The compounds were tested for anti-pentamethylene tetrazole activity, the test described on p.

The next data set in a line: Solubility. Type of data set: physicochemical. Conditions: for solubility / solubility in water (in words): in water; for solubility in ethanol: in ethanol at 95° GL.
Data set [2] in a line: Toxicity test (LD50, Miller and Tainter). Conditions: mouse, in vivo, mice. Here is the method: The compounds according to the invention were subjected to toxicity tests. It was tested in batches of 10 mice by oral, intraperitoneal and, in some cases, intravenous administration and was calculated in accordance with Miller and Tainter's method (Proc. Soc. exper. Biol. Med., 1944, 57, 261).

Setting [3] is: oral, 60 min before 125 mg/kg s.c. pentamethylene tetrazole, male Swiss mice, read-out: anti-pentamethylene tetrazole activity DE50 P.O.
The mark [4] stands for this setting: ip, intraperitoneal, read-out: DL50 I.P.
Where [5] appears, read: po, prior art comparison, VO, dose giving 50% inhibition, read-out: Activity antipentetrazol (VO), 50% inhibition.

Broadly, the solubility is the concentration that dissolves in the medium under given conditions. As for `CN(C(=O)CNC1CC1)c1ccc(Cl)cc1C(=O)c1ccccc1` [Example 10, N-Methyl-N'-cyclopropyl-(2-benzoyl-4-chloro)-glycinanilide hydrochloride], the ED50 in data set [1] (setting [3]) was determined as 0.8 mg/kg. The same compound displayed a solubility in “Solubility” of 13 mg/mL.

For `C#CC(CC)(CC)NCC(=O)N(C)c1ccc(Cl)cc1C(=O)c1ccccc1` [Example 8, N-Methyl-N'-(1',1'-diethyl-propargyl)-(2-benzoyl-4-chloro)-glycinanilide hydrochloride], the LD50 in data set [2] (setting [4]) turned out to be 400 mg/kg. The LD50 in data set [2] (oral, read-out: DL50 oral) turned out to be 1000 mg/kg. The ED50 in data set [1] (setting [3]) worked out at 4.1 mg/kg. In the data set “Solubility”, the “solubility in dimethyl formamide” value was found to be 1%, the solubility in ethanol is on record as 1% and the “solubility in water (in words)” value is “insoluble”.

Take `CN(CCO)CC(=O)Nc1ccc(Cl)cc1C(=O)c1ccccc1` [R = H, R1 = CH3, R2 = CH2CH2 OH, reference compound]: the “Activity antipentetrazol (VO), at 10 mg” value in data set [1] (prior art comparison, VO) is “inactive”.

On to `CCN(CCO)CC(=O)N(C)c1ccc(Cl)cc1C(=O)c1ccccc1` [Example 15, N-Methyl-N'-ethyl-N'-(2'-hydroxyethyl)-(2-benzoyl-4-chloro)-glycinanilide], for which the LD50 in data set [2] (setting [4]) is 150 mg/kg. The LD50 in data set [2] (oral, read-out: DL50 oral) turned out to be 550 mg/kg. In addition, the ED50 in data set [1] (setting [3]) worked out at 2.9 mg/kg. In “Solubility”, the “solubility in dimethyl formamide” value is reported as 30%, the solubility in ethanol was 10% and the “solubility in water (in words)” value is “insoluble”.

`CC(C)NCC(=O)N(C)c1ccc(Cl)cc1C(=O)c1ccccc1` [Example 1, N-Isopropyl-N'-methyl-(2-benzoyl-4-chloro)-glycinanilide hydrochloride] registered a solubility in the data set “Solubility” of 10 mg/mL.

Regarding `CN(C(=O)Cn1ccnc1)c1ccc(Cl)cc1C(=O)c1ccccc1` [Example 23, N-Methyl-2-imidazolyl-(2-benzoyl-4-chloro)-acetanilide], the LD50 in data set [2] (setting [4]) worked out at 500 mg/kg. Moreover, in data set [2] (oral, read-out: DL50 oral), the LD50 came to 1000 mg/kg. In the data set “Solubility”, the “solubility in dimethyl formamide” value came out at 20%, the solubility in ethanol was found to be 10% and the “solubility in water (in words)” value is listed as “insoluble”.

Take `CN(C)CC(=O)N(C)c1ccc(Cl)cc1C(=O)c1ccccc1` [Example 4, N,N',N'-Trimethyl-(2-benzoyl-4-chloro)-glycinanilide]: the ED50 in data set [1] (setting [5]) stood at 1.7 mg/kg. Moreover, in “Solubility”, the “solubility in dimethyl formamide” value came to 20%, the solubility in ethanol is listed as 20% and the “solubility in water (in words)” value is given as “insoluble”.

On to `CC(CNCC(=O)Nc1ccc(Cl)cc1C(=O)c1ccccc1)c1ccccc1` (centres unmarked) [reference compound], for which, in data set [1] (prior art comparison, VO), the “Activity antipentetrazol (VO), at 10 mg” value was “inactive”.

For the compound `CN1CCN(CC(=O)N(C)c2ccc(Cl)cc2C(=O)c2ccccc2)CC1` [Example 22, N-Methyl-4'-methyl-2-piperazino-(2-benzoyl-4-chloro)-acetanilide], the LD50 in data set [2] (setting [4]) came to 500 mg/kg. The LD50 in data set [2] (oral, read-out: DL50 oral) was 1000 mg/kg. Besides, in “Solubility”, the “solubility in dimethyl formamide” value worked out at 5%, the solubility in ethanol amounted to 5% and the “solubility in water (in words)” value is listed as “insoluble”.

For `C=CCNCC(=O)Nc1ccc(Cl)cc1C(=O)c1ccccc1` [R = H, R1 = H, R2 = CH2CHCH2, reference compound], in data set [1] (prior art comparison, VO), the “Activity antipentetrazol (VO), at 10 mg” value was “inactive”.

`C#CC(C)(C)NCC(=O)N(C)c1ccc(Cl)cc1C(=O)c1ccccc1` [drawing 31]: the ED50 in data set [1] (setting [5]) is 2.3 mg/kg.

As for `CN(C(=O)CNCc1ccccc1)c1ccc(Cl)cc1C(=O)c1ccccc1` [Example 6, N-Methyl-N'-benzyl-(2-benzoyl-4-chloro)-glycinanilide hydrochloride], the solubility in the data set “Solubility” is 25 mg/mL.

As for `O=C(CNCc1ccccc1)Nc1ccc(Cl)cc1C(=O)c1ccccc1` [reference compound], in data set [1] (prior art comparison, VO), the “Activity antipentetrazol (VO), at 10 mg” value is “inactive”.

In the case of `CN(C)CC(=O)Nc1ccc(Cl)cc1C(=O)c1ccccc1` [R = H, R1 = CH3, R2 = CH3, reference compound], the “Activity antipentetrazol (VO), at 10 mg” value in data set [1] (prior art comparison, VO) is “inactive”.

`COCCNCC(=O)Nc1ccc(Cl)cc1C(=O)c1ccccc1` [R = H, R1 = H, R2 = CH2CH2OCH3, reference compound]: the “Activity antipentetrazol (VO), at 10 mg” value in data set [1] (prior art comparison, VO) is “inactive”.

On to `CN1C(=O)CN=C(c2ccccc2)c2cc(Cl)ccc21` [diazepam, reference compound], for which, in data set [1] (setting [3]), the ED50 turned out to be 1 mg/kg.

Turning to `CC(C)N(CC(=O)N(C)c1ccc(Cl)cc1C(=O)c1ccccc1)C1CCCCC1` [Example 21, N-Methyl-N'-isopropyl-N'-cyclohexyl-(2-benzoyl-4-chloro)glycinanilide hydrochloride], the LD50 in data set [2] (setting [4]) was determined as 500 mg/kg; in data set [2] (oral, read-out: DL50 oral), 1000 mg/kg. In addition, the ED50 in data set [1] (setting [3]) was 2.2 mg/kg. Besides, in the data set “Solubility”, the solubility worked out at 50 mg/mL.

Take `CNC1=Nc2ccc(Cl)cc2C(c2ccccc2)=[N+]([O-])C1` [chlordiazepoxide, reference compound]: the ED50 in data set [1] (setting [3]) was 5 mg/kg.

Turning to `CNCC(=O)N(C)c1ccc(Cl)cc1C(=O)c1ccccc1` [Example 3, N,N'-Dimethyl-(2-benzoyl-4-chloro)-glycinanilide hydrochloride], in data set [1] (setting [5]), the ED50 worked out at 1.7 mg/kg. This compound also showed a solubility in “Solubility” of 150 mg/mL.

`C#CC1(NCC(=O)N(C)c2ccc(Cl)cc2C(=O)c2ccccc2)CCCCC1` [Example 9, N-Methyl-N'-(1'-ethinyl-cyclohexyl)-(2-benzoyl-4-chloro)-glycinanilide hydrochloride]: the LD50 in data set [2] (setting [4]) worked out at 200 mg/kg. The LD50 in data set [2] (oral, read-out: DL50 oral) came out at 560 mg/kg. Also, the ED50 in data set [1] (setting [3]) stood at 3.9 mg/kg. Also, in the data set “Solubility”, the “solubility in dimethyl formamide” value turned out to be 2%, the solubility in ethanol is given as 3% and the “solubility in water (in words)” value is listed as “insoluble”.

Take `C#CC(C)(C)NCC(=O)N(C)c1ccc(Cl)cc1C(=O)c1ccccc1` [Example 2, N-Methyl-N'-1,1-dimethyl-propargyl-(2-benzoyl-4-chloro)-glycinanilide hydrochloride]: the LD50 in data set [2] (setting [4]) was 450 mg/kg; in data set [2] (oral, read-out: DL50 oral) it was above 1000 mg/kg. In addition, the ED50 in data set [1] (setting [3]) came to 1.5 mg/kg. This compound also gave a solubility in the data set “Solubility” of 10 mg/mL.

Consider `CN(C(=O)CNCc1ccccc1)c1ccc(Cl)cc1C(=O)c1ccccc1` [drawing 35], for which the ED50 in data set [1] (setting [5]) is 3 mg/kg.

`C#CC(C)(C)NCC(=O)Nc1ccc(Cl)cc1C(=O)c1ccccc1` [reference compound]: the “Activity antipentetrazol (VO), at 10 mg” value in data set [1] (prior art comparison, VO) was “inactive”.

Take `CN(C(=O)CN(CCO)CCO)c1ccc(Cl)cc1C(=O)c1ccccc1` [Example 16, N-Methyl-N',N'-bis-(2'-hydroxyethyl)-(2-benzoyl-4-chloro)-glycinanilide hydrochloride]: the LD50 in data set [2] (setting [4]) was above 500 mg/kg; in data set [2] (oral, read-out: DL50 oral) it was above 1000 mg/kg. Besides, the ED50 in data set [1] (setting [3]) came to 3.4 mg/kg. Further, the solubility in the data set “Solubility” came to 50 mg/mL.

For the compound `C=CCNCC(=O)N(C)c1ccc(Cl)cc1C(=O)c1ccccc1` [Example 7, N-methyl-N'-allyl-(2-benzoyl-4-chloro)-glycinanilide hydrochloride], the LD50 in data set [2] (setting [4]) was 500 mg/kg; in data set [2] (oral, read-out: DL50 oral) it was above 1000 mg/kg. Also, the ED50 in data set [1] (setting [3]) came to 1.9 mg/kg. The solubility in the data set “Solubility” amounted to 30 mg/mL.

On to `CCC(CO)(CO)NCC(=O)N(C)c1ccc(Cl)cc1C(=O)c1ccccc1` [Example 13, N-Methyl-N'-(1'-ethyl-1'-hydroxymethyl-2'-hydroxyethyl)-(2-benzoyl-4-chloro)-glycinanilide hydrochloride], for which, in the data set “Solubility”, the solubility came out at 500 mg/mL.

For the compound `CN(C(=O)CNC(C)(C)CO)c1ccc(Cl)cc1C(=O)c1ccccc1` [Example 12, N-Methyl-N'-(1',1'-dimethyl-2'-hydroxyethyl)-(2-benzoyl-4-chloro)-glycinanilide], in the data set “Solubility”, the “solubility in dimethyl formamide” value is listed as 25%, the solubility in ethanol was determined as 10% and the “solubility in water (in words)” value is listed as “insoluble”.

As for `CN(C(=O)CN1CCCCC1)c1ccc(Cl)cc1C(=O)c1ccccc1` [Example 17, N-Methyl-2-piperidino-(2'-benzoyl-4'-chloro)-acetanilide hydrochloride], the solubility in “Solubility” came out at 500 mg/mL.

On to `COCCNCC(=O)N(C)c1ccc(Cl)cc1C(=O)c1ccccc1` [Example 5, N-Methyl-N'-(2'-methoxyethyl)-(2-benzoyl-4-chloro)-glycinanilide hydrochloride], for which the LD50 in data set [2] (setting [4]) amounted to 300 mg/kg; in data set [2] (oral, read-out: DL50 oral), 750 mg/kg. Besides, the ED50 in data set [1] (setting [3]) is 2.6 mg/kg. Moreover, the solubility in “Solubility” was found to be 500 mg/mL.

In the case of `CC(CNCC(=O)N(C)c1ccc(Cl)cc1C(=O)c1ccccc1)c1ccccc1` (centres unmarked), the ED50 in data set [1] (setting [5]) stood at 2.9 mg/kg.

With `CNCC(=O)Nc1ccc(Cl)cc1C(=O)c1ccccc1` [R = H, R1 = H, R2 = CH3, reference compound], the “Activity antipentetrazol (VO), at 10 mg” value in data set [1] (prior art comparison, VO) is “inactive”.

With `CN(C(=O)CN(C)C1CCCCC1)c1ccc(Cl)cc1C(=O)c1ccccc1` [Example 20, N,N'-Dimethyl-N'-cyclohexyl-(2-benzoyl-4-chloro)-glycinanilide hydrochloride], the LD50 was above 500 mg/kg in data set [2] (setting [4]) and above 1000 mg/kg in data set [2] (oral, read-out: DL50 oral). Also, the ED50 in data set [1] (setting [3]) amounted to 1.9 mg/kg. For the same compound, the solubility in “Solubility” amounted to 20 mg/mL.
